Assay results from patent US7727736B2, “Soluble phospholipids for use in clotting factor assays” (The University of North Carolina at Chapel Hill, priority 2003, dated 2010).

Biological target: T1, factor Va (Bos taurus, UniProt Q28107)
T1 sequence (Q28107 29-741 limits assumed): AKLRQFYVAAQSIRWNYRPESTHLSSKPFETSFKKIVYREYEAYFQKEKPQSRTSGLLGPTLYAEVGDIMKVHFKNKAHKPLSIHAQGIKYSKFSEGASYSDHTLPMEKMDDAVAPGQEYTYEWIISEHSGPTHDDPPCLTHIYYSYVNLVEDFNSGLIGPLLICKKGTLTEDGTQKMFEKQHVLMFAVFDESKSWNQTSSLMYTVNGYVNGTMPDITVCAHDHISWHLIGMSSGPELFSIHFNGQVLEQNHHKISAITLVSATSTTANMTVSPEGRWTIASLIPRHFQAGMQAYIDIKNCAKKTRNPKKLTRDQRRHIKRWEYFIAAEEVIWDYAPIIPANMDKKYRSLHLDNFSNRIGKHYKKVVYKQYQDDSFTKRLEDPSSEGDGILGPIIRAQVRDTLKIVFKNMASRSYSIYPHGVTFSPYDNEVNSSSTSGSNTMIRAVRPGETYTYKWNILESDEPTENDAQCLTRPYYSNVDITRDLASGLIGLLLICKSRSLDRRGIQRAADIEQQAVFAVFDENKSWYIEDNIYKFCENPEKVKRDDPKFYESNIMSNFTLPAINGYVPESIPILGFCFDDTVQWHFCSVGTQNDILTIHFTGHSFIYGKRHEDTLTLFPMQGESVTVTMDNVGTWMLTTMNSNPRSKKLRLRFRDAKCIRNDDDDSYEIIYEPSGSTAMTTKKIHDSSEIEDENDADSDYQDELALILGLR
T1 sequence (Q28107 1565-2211 limits assumed): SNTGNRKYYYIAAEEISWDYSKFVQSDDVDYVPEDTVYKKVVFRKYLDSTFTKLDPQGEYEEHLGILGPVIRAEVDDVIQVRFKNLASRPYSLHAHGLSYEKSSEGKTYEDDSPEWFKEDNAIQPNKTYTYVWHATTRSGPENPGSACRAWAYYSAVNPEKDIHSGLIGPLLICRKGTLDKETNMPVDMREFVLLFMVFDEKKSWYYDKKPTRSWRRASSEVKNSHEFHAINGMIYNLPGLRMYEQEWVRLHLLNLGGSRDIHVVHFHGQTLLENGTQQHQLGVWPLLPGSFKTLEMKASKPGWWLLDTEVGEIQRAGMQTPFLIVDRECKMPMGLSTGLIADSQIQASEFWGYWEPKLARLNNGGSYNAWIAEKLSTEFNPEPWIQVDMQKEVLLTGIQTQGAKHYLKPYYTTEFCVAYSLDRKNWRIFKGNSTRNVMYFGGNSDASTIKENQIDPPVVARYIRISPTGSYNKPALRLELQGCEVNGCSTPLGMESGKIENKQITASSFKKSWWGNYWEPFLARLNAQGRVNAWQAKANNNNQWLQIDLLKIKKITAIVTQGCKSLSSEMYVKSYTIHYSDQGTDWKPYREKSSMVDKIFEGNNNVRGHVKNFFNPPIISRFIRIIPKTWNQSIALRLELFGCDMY
Assay: Factor Va inactivation by APC
Assay type: biochemical, bovine
Design: APC cuts three bonds in the heavy chain of factor Va; bovine factor Va (100 nM)
Method: Aliquots of this mixture (10 μL) were added at selected time intervals to a cuvette containing prothrombin (1.4 μM), DAPA (5 μM), PCPS vesicle (50 μM), and factor Xa (10 nM) in a total assay volume of 1 mL. The fluorescence intensity of the thrombin-DAPA was monitored with time. Under these conditions, the rate of thrombin formation is proportional to the rate of DAPA fluorescence increase and is linearly related to the amount of active factor Va. The two isoforms of factor Va, Va1 (Frame A) and Va2 (Frame B) were inactivated at different rates and to different extents by APC depending on the availability of C6PS.
Proteolysis at Arg^506 leads to partial inactivation, but proteolysis at Arg^306 is necessary for full inactivation (Kalafatis & Mann (1993) J. Biol. Chemistry 268 27246; Nicolaes et al., (1995) J. Biol. Chemistry (1995) 270 21158). […] The rate of proteolysis of the bond at Arg^306 increased from undetectable to a value of kcat/KM=3-3.5×10^6 M^−1sec^−1, identical to the rate reported with PS-containing membranes.

CCCCCC(=O)OC[C@H](COP(=O)(O)OC[C@H](N)C(=O)O)OC(=O)CCCCC [C6PS, 1,2-dicaproyl-sn-glycero-3-phospho-L-serine]
effect on extent of factor Va inactivation by APC (4 μM C6PS): only a small effect | effect on rate of factor Va inactivation by APC (4 μM C6PS): no effect | factor Va inactivation by APC (200 μM C6PS): complete inactivation
